Measurements: PMC10300102, “In vivo inhibition of nuclear ACE2 translocation protects against SARS-CoV-2 replication and lung damage through epigenetic imprinting” (Nature Communications, 2023)
Values joined by “and” are separate entries in the source; they are usually repeats but may differ in a detail not shown here. Equal entries are not always repeated. Where two headings read alike, the source gives them in different places. Where a SMILES comes first, the peptide text is derived from it. The star is where a group is joined. Myristoyl = CCCCCCCCCCCCCC(=O)*

Columns and labels:
[1] = test system: SARS-CoV-2-induced lung pathology; parameters: species or system golden Syrian hamsters; conditions: hamster, in vivo
[2] = molecular target: T1, ACE2 (Homo sapiens, UniProt Q9BYF1); test: ACE2 activity assay in Caco2 cell lysates; assay type: biochemical; conditions: Caco2 cells treated 50 µM 24 h, fluorometric kit, n = 3 technical replicates
T1 construct: endogenous in cells; host or cells: Caco2
Method: Caco2 cells were seeded in T75 flasks using complete DMEM medium as above. Cells were treated with NACEi2 (50 µM) for 24 h. 1 × 10^6 cells were harvested, and the ACE2 activity assay was performed using the ACE2 Activity Assay Kit (Fluorometric) (ab273297, Abcam, Cambridge, UK) following the manufacturer’s instructions. ACE2 positive control with diluted ACE2 inhibitor was used as a negative control, and cell lysate with lysis buffer only was used as the background control. Fluorescence (Ex/Em = 320/420 nm) was measured in kinetic mode for 30 min (5 min intervals) at room temperature with a Biotek Synergy H4 Multimode Scanner.

[3] = test system: SARS-CoV-2; assay type: in vivo, golden Syrian hamsters
[4] = test system: NFACT1, C-Rel, ACE2, pPKC-zeta, Nurr1/Nur77, HDAC1 or NFKB p50; assay type: cell-based; conditions: Fig. 1d
[5] = test system: PBMCs; assay type: cell-based, human; conditions: 10 µM 24 h
[6] = molecular target: T2, ACE2-IMPα interactions in H1299 cells (Homo sapiens, UniProt P52294); test: Duolink proximity ligation assay; assay type: cell-based; conditions: 0.0015, 0.0977 and 6.25 µM
T2 construct: endogenous in cells; host or cells: NCI-H1299
Method: The Duolink proximity ligation assay was used with PLA probe anti-mouse PLUS (DUO92001), PLA probe anti-rabbit MINUS (DUO92005), and the Duolink In Situ Detection Reagent Red kit (DUO92008) (Sigma-Aldrich). Cells were fixed, permeabilized, and incubated with primary ACE2 antibodies targeting the NLS region and IMPα1 (staining conditions are shown in Supplementary Table 4). Cells were processed according to the manufacturer’s instructions. Finally, coverslips were mounted onto slides and examined as above. Image segmentation and analysis were carried out using QuPath open software (version 0.4.3) for bioimage analysis[64] with a custom script. An analysis workflow was developed with the following steps: (i) threshold-based cell detection using DAPI staining to create a mask for detected nuclei along with a 5 µm cell expansion setting to denote the cell cytoplasm boundary; and (ii) use of the QuPath subcellular detection module to detect the Duolink-positive spots in the Alexa Fluor 555 channel in each cell. The two functions were wrapped in a script to allow for batch analysis of images and data export. Total dots were counted per cell and then averaged for each cell and experimental group; approximately 100 cells were counted per group.

[7] = test system: lung bronchiole and alveoli cell types; test: Cell type deconvolution analysis of NanoString DSP data; assay type: in vivo, golden Syrian hamsters; parameters: cell type proportion: macrophages: unit not given here; conditions: for cell type proportion: B / cell type proportion: NK / cell type proportion: T / cell type proportion: Treg / cell type proportion: endothelial / cell type proportion: fibroblasts / cell type proportion: mDCs / cell type proportion: macrophages / cell type proportion: mast / cell type proportion: monocytes / cell type proportion: neutrophils / cell type proportion: pDCs / cell type proportion: plasma: individual ROIs of H023 and H017
Method: Cell type deconvolution analysis was performed using R package SpatialDecon[68]. The Q3 normalized count matrix from NanoString DSP data and the safeTME[68] immune cell profile matrix were used as the query and reference input, respectively, to reveal cell type abundance within each of the selected ROIs. Cell type proportion for each selected ROI was visualized using a stack bar plot, where ROIs were grouped by tissue region (bronchioles vs. alveoli) and experimental condition (control and NACE2i-treated samples). In addition, given the non-normal distribution of the data, the Wilcoxon test was performed to compare each cell type proportion in controls against NACE2i-treated ROIs. The distribution of each cell type and p-value for the comparisons were visualized in box plots.

T2 sequence (P52294 whole entry): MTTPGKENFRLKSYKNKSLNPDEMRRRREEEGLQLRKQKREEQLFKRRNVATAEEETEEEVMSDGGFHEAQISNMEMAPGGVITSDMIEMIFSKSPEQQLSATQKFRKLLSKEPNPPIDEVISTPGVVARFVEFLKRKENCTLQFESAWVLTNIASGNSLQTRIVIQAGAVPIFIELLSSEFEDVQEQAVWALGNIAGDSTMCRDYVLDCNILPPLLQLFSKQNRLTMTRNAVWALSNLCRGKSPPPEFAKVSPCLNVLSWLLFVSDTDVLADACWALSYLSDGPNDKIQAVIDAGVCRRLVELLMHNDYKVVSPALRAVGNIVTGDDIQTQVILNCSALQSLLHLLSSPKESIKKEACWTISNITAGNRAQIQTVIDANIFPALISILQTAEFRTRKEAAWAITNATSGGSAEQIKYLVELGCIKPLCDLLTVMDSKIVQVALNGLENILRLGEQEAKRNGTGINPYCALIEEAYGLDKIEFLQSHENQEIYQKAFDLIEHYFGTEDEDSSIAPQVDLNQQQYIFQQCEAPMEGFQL
T1 sequence (Q9BYF1 18-805): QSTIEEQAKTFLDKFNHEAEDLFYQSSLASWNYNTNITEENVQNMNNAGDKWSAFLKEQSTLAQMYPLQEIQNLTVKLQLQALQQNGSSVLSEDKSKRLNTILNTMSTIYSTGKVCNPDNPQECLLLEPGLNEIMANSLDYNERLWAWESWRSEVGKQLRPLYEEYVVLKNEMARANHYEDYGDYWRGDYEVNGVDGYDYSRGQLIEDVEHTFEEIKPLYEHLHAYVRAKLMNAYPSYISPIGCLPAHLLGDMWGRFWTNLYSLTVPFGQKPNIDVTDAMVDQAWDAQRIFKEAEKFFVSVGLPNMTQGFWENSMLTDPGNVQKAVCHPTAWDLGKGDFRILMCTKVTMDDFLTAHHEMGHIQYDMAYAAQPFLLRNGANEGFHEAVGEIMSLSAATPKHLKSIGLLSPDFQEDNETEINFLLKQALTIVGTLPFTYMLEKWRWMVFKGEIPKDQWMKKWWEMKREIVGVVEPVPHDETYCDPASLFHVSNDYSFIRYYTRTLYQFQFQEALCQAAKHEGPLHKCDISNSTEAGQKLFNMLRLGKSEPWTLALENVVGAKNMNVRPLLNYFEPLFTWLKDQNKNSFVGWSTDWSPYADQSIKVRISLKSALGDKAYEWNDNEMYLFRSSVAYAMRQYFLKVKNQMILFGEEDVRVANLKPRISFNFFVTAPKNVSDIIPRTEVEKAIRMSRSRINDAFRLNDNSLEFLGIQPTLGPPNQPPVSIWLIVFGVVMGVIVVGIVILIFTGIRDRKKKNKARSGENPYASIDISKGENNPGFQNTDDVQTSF

CCCCCCCCCCCCCC(=O)N[C@H](C(=O)NCC(=O)N[C@H](C(=O)N[C@@H](CCCNC(=N)N)C(=O)N[C@@H](CC(=O)O)C(=O)N[C@@H](CCCNC(=N)N)C(=O)N[C@@H](CCCCN)C(=O)N[C@@H](CCCCN)C(=O)N[C@@H](CCCCN)C(=O)N[C@@H](CC(N)=O)C(=O)N[C@@H](CCCCN)C(=O)N[C@@H](C)C(=O)N[C@@H](CCCNC(=N)N)C(=O)N[C@@H](CO)C(=O)O)[C@@H](C)CC)[C@@H](C)O [NACE2i] (Myristoyl-TGIRDRKKKNKARS-OH)
lung histopathological changes [1]: minimal alveolar, bronchiolar, or vascular changes
mean cumulative histopathological scores versus vehicle [1]: substantially lower
Bronchitis/bronchiolitis ([1]; ip): 0
Interstital inflammation ([1]; ip): 0
Vasculitis ([1]; ip): 0
ACE2 enzymatic activity [2]: no impact
viral RNA in the lungs ([3]; hamster, in vivo): significant reductions
decrease in lung viral RNA normalized to vehicle controls ([3]; n=7, 15 mg/kg): 88%
decrease in lung viral RNA normalized to vehicle controls ([3]; n=8, 100 mg/kg): 96%
selectivity for nuclear ACE2 versus other nuclear proteins of the importin pathway (NFI) [4]: specifically targets nuclear ACE2 and not other nuclear proteins
IL-6 expression [5]: reduced
perforin expression [5]: increased
ACE2-IMPα interactions (Duolink) [6]: significantly inhibited ACE2-IMPα interactions in a dose-dependent manner
cell type proportion: B ([7]; Alveoli_NACE2i): 23.6847 and 32.4439 and 22.6247 and 29.4388 and 26.4374 and 25.048 and 27.5277 and 28.9903 and 27.2409 and 34.2892 and 28.9637 and 28.8675
cell type proportion: NK ([7]; Alveoli_NACE2i): 17.1939 and 16.5847 and 20.9543 and 18.0108 and 22.2943 and 18.4617 and 20.087 and 18.6524 and 17.3616 and 14.6317 and 17.3619 and 17.6717
cell type proportion: T ([7]; Alveoli_NACE2i): 16.6413 and 6.4009 and 15.4997 and 7.4175 and 8.025 and 5.045 and 6.1551 and 0 (2×) and 10.2833 and 5.973 and 3.9643
cell type proportion: Treg ([7]; Alveoli_NACE2i): 0 (6×) and 1.553 and 8.1921 and 4.323 and 1 and 11.0807 and 5.06
cell type proportion: endothelial ([7]; Alveoli_NACE2i): 28.1806 and 29.4553 and 29.583 and 29.8626 and 25.5168 and 33.6067 and 33.1024 and 36.1595 and 33.2493 and 33.1189 and 27.1461 and 36.2683
cell type proportion: fibroblasts ([7]; Alveoli_NACE2i): 1.176 and 0.714 and 0.4633 and 0.8459 and 0.7981 and 0.4825 and 0.7109 and 0.76 and 1.098 and 0.6031 and 0.7444 and 1.019
cell type proportion: mDCs ([7]; Alveoli_NACE2i): 0 (10×) and 0.2521 and 0.6557
cell type proportion: macrophages ([7]; Alveoli_NACE2i): 5.388 and 3.326 and 1.773 and 2.095 and 8.024 and 0.205 and 7.196 and 5.143 and 2.92 and 3.5372 and 2.755 and 4.269
cell type proportion: mast ([7]; Alveoli_NACE2i): 3.016 and 2.78 and 3.108 and 4.739 and 2.682 and 3.555 and 2.55 and 3.279 and 2.68 and 3.582 and 4.658 and 2.8819
cell type proportion: monocytes ([7]; Alveoli_NACE2i): 0.03537 and 0 (11×)
cell type proportion: neutrophils ([7]; Alveoli_NACE2i): 1.753 and 2.9035 and 1.994 and 3.2852 and 1.817 and 0.9729 and 2.361 and 0.2488 and 2.135 and 0.8335 and 0.7054 and 0.8644
cell type proportion: pDCs ([7]; Alveoli_NACE2i): 0
cell type proportion: plasma ([7]; Alveoli_NACE2i): 2.932 and 5.391 and 3.999 and 2.753 and 4.405 and 4.431 and 0.3105 and 2.193 and 2.376 and 2.431 and 2.621 and 3.0985
cell type proportion: B ([7]; Bronchiole_NACE2i): 0 (4×) and 36.4151 and 8.716 and 15.9886 and 32.8168 and 11.1034 and 35.5652 and 45.4372 and 7.351
cell type proportion: NK ([7]; Bronchiole_NACE2i): 23.9964 and 22.2229 and 20.8895 and 32.9425 and 10.1656 and 15.473 and 6.835 and 10.348 and 25.7402 and 11.1678 and 15.6048 and 32.6588
cell type proportion: T ([7]; Bronchiole_NACE2i): 18.2436 and 18.4266 and 38.1438 and 0 (3×) and 5.53 and 45.4382 and 35.2758 and 13.8104 and 20.1994 and 29.1879
cell type proportion: Treg ([7]; Bronchiole_NACE2i): 0 (5×) and 21.836 and 33.8509 and 20.1505 and 4.85 and 5.947 and 12.5635 and 16.1845
cell type proportion: endothelial ([7]; Bronchiole_NACE2i): 16.4013 and 5.225 and 10.2999 and 2.966 and 17.2008 and 10.2265 and 6.188 and 5.584 and 8.968 and 11.6958 and 12.5764 and 14.8185
cell type proportion: fibroblasts ([7]; Bronchiole_NACE2i): 2.825 and 0.8593 and 2.185 and 1.129 and 1.957 and 1.105 and 1.635 and 0.3982 and 0.8306 and 1.6 and 2.113 and 2.3944
cell type proportion: mDCs ([7]; Bronchiole_NACE2i): 0 (10×) and 0.9775 and 1.142
cell type proportion: macrophages ([7]; Bronchiole_NACE2i): 5.529 and 0 and 0.1628 and 4.651 and 2.104 and 14.1819 and 29.1261 and 22.5397 and 28.7793 and 1.462 and 3.082 and 5.048
cell type proportion: mast ([7]; Bronchiole_NACE2i): 7.052 and 8.207 and 2.9723 and 2.068 and 4.233 and 1.198 and 2.171 and 3.272 and 0 and 1.897 and 1.1071 and 8.014
cell type proportion: monocytes ([7]; Bronchiole_NACE2i): 0 (11×) and 0.2701
cell type proportion: neutrophils ([7]; Bronchiole_NACE2i): 9.945 and 11.5606 and 12.9563 and 15.2877 and 1.922 and 0 and 1.136 and 5.344 and 0.585 and 0.3256 and 4.512 and 3.83
cell type proportion: pDCs ([7]; Bronchiole_NACE2i): 0.5957 and 4.06 and 4.2347 and 0 (6×) and 1.875 and 1.074 and 1.693
cell type proportion: plasma ([7]; Bronchiole_NACE2i): 15.4112 and 7.333 and 8.156 and 7.105 and 0.3226 and 1.788 and 1.644 and 1.037 and 2.72 and 1.151 and 2.026 and 6.866
NK cells in bronchiolar regions ([7]; infected hamsters 2 dpi): increased
macrophages in bronchiolar regions ([7]; infected hamsters 2 dpi): significantly decreased
